Source: patent US9073821B2, “Hydroxamic acid derivative” (priority 2010, dated 2015)
pIC50: −log10 of the molar value.

target: Pseudomonas aeruginosa LpxC enzyme (Pseudomonas aeruginosa (strain ATCC 15692 / DSM 22644 / CIP 104116 / JCM 14847 / LMG 12228 / 1C / PRS 101 / PAO1), UniProt P47205); experiment: biochemical; assay type: biochemical; settings: class symbols A/B/C by IC50; Table 3; read-out: Enzyme inhibitory activity (inhibitory activity on Pseudomonas aeruginosa LpxC enzyme)

Row | pIC50 | Compound
1 | > 8.00 | CN(C(=O)c1ccc(C#Cc2ccc(CN3CCCOCC3)cc2)cc1)C(C)(C(=O)NO)C(=O)NCc1ccccn1 (stereo not drawn) [Compound 521, N-hydroxy-2-methyl-2-{methyl[(4-{[4-(1,4-oxazepan-4-ylmethyl)phenyl]ethynyl}phenyl)carbonyl]amino}-N′-(pyridin-2-ylmethyl)propanediamide]
2 | > 8.00 | CNC(=O)[C@@](C)(C(=O)NO)N(C)C(=O)c1ccc(C#Cc2coc(CO)c2)cc1 [Compound 616, (2S)-N-hydroxy-2-[(4-{[5-(hydroxymethyl)furan-3-yl]ethynyl}benzoyl)(methyl)amino]-N′,2-dimethylpropanediamide]
3 | > 8.00 | CNC(=O)[C@@](C)(C(=O)NO)N(C)C(=O)c1ccc(C#C/C=C/C2CCOCC2)cc1 [Compound 590, (2S)-N-hydroxy-N′,2-dimethyl-2-(methyl {4-[(3E)-4-(tetrahydro-2H-pyran-4-yl)but-3-en-1-yn-1-yl]benzoyl}amino)propanediamide]
4 | > 8.00 | CNC(=O)C(C(=O)NO)N(C)C(=O)c1ccc(C#Cc2ccc(CN3CCCC(C)(C)C3)cc2)cc1 (stereo not drawn) [Compound 513, 2-[{[4-({4-[(3,3-dimethylpiperidin-1-yl)methyl]phenyl}ethynyl)phenyl]carbonyl}(methyl)amino]-N-hydroxy-N′-methylpropanediamide]
5 | > 8.00 | CCOC1CN(Cc2ccc(C#Cc3ccc(C(=O)N(C)C(C(=O)NC)C(=O)NO)cc3C)cc2)C1 (stereo not drawn) [Compound 582, 2-[{[4-({4-[(3-ethoxyazetidin-1-yl)methyl]phenyl}ethynyl)-3-methylphenyl]carbonyl}(methyl)amino]-N-hydroxy-N′-methylpropanediamide]

same assay, conditions: inhibitory activity on Pseudomonas aeruginosa LpxC enzyme, class symbols A/B/C; read-out: Enzyme inhibitory activity

Row | Compound | pIC50
6 | CNC(=O)C(C(=O)NO)N(C)C(=O)c1ccc(-c2ccc(CCCCN3CCOCC3)cc2)cc1 (stereo not drawn) [Compound 221, N-hydroxy-N′-methyl-2-[methyl({4′-[4-(morpholin-4-yl)butyl]biphenyl-4-yl}carbonyl)amino]propanediamide] | > 8.00
7 | O=C(NC(C(=O)NO)C(=O)NCC1CNCCO1)c1ccc(-c2ccc(OCCO)cc2)cc1 (stereo not drawn) [Compound 162, N-hydroxy-2-({[4′-(2-hydroxyethoxy)biphenyl-4-yl]carbonyl}amino)-N′-(morpholin-2-ylmethyl)propanediamide] | 7.00 to 8.00
8 | CNC(=O)C(C(=O)NO)N(C)C(=O)c1ccc(-c2ccc(OCCCN3CCOCC3)c(F)c2)cc1 (stereo not drawn) [Compound 208, 2-[({3′-fluoro-4′-[3-(morpholin-4-yl)propoxy]biphenyl-4-yl}carbonyl)(methyl)amino]-N-hydroxy-N′-methylpropanediamide] | > 8.00
9 | CNC(=O)C(C(=O)NO)N(C)C(=O)c1ccc(-c2cccc(NC)c2)cc1 (stereo not drawn) [Compound 278, N-hydroxy-N′-methyl-2-(methyl {[3′-(methylamino)biphenyl-4-yl]carbonyl}amino)propanediamide] | 7.00 to 8.00
10 | CNC(=O)C(C(=O)NO)N(C)C(=O)c1ccc(-c2ccc(NC)c(C(F)(F)F)c2)cc1 (stereo not drawn) [Compound 68, N-hydroxy-N′-methyl-2-(methyl{[4′-(methylamino)-3′-(trifluoromethyl)biphenyl-4-yl]carbonyl}amino)propanediamide] | > 8.00
11 | CNC(=O)C(C(=O)NO)N(C)C(=O)c1ccc(-c2ccc(C)cc2F)cc1 (stereo not drawn) [Compound 23, 2-{[(2′-fluoro-4′-methylbiphenyl-4-yl)carbonyl](methyl)amino}-N-hydroxy-N′-methylpropanediamide] | > 8.00
12 | CNC(=O)C(C(=O)NO)N(C)C(=O)c1ccc(-c2ccc(N3CCCC3)cc2)cc1 (stereo not drawn) [Compound 256, N-hydroxy-N′-methyl-2-(methyl {[4′-(pyrrolidin-1-yl)biphenyl-4-yl]carbonyl}amino)propanediamide] | > 8.00
13 | CNC(=O)C(C(=O)NO)N(C)C(=O)c1ccc(-c2ccc(OCCCCO)cc2)cc1 (stereo not drawn) [Compound 180, N-hydroxy-2-[{[4′-(4-hydroxybutoxy)biphenyl-4-yl]carbonyl}(methyl)amino]-N′-methylpropanediamide] | > 8.00
14 | CNC(=O)C(C(=O)NO)N(C)C(=O)c1ccc(-c2ccc(OCCCNC3CC3)cc2)cc1 (stereo not drawn) [Compound 217, 2-[({4′-[3-(cyclopropylamino)propoxy]biphenyl-4-yl}carbonyl)(methyl)amino]-N-hydroxy-N′-methylpropanediamide] | 7.00 to 8.00
15 | CNC(=O)C(C(=O)NO)N(C)C(=O)c1ccc(-c2ccc(OCc3ccc(CN4CCOCC4)cc3)cc2)cc1 (stereo not drawn) [Compound 91, N-hydroxy-N′-methyl-2-{methyl[(4′-{[4-(morpholin-4-ylmethyl)benzyl]oxy}biphenyl-4-yl)carbonyl]amino}propanediamide] | > 8.00
16 | CNC(=O)C(C(=O)NO)N(C)C(=O)c1ccc(C#Cc2ccc(OCC(O)CO)cc2)cc1 (stereo not drawn) [Compound 320, 2-{[(4-{[4-(2,3-dihydroxypropoxy)phenyl]ethynyl}phenyl)carbonyl](methyl)amino}-N-hydroxy-N′-methylpropanediamide] | > 8.00
17 | CNC(=O)C(NC(=O)c1ccc(-c2ccc(OCCOCCOCCO)cc2)cc1)C(=O)NO (stereo not drawn) [Compound 13, N-hydroxy-2-{[(4′-{2-[2-(2-hydroxyethoxy)ethoxy]ethoxy}biphenyl-4-yl)carbonyl]amino}-N′-methylpropanediamide] | 7.00 to 8.00
18 | CNC(=O)C(C(=O)NO)N(C)C(=O)c1ccc(-c2ccc(NCCCOC)cc2)cc1 (stereo not drawn) [Compound 228, N-hydroxy-2-[({4′-[(3-methoxypropyl)amino]biphenyl-4-yl}carbonyl)(methyl)amino]-N′-methylpropanediamide] | > 8.00
19 | CNC(=O)C(C(=O)NO)N(C)C(=O)c1ccc(-c2ccc(OCc3ccc(N4CCN(C)CC4)cc3)cc2)cc1 (stereo not drawn) [Compound 90, N-hydroxy-N′-methyl-2-{methyl[(4′-{[4-(4-methylpiperazin-1-yl)benzyl]oxy}biphenyl-4-yl)carbonyl]amino}propanediamide] | > 8.00
20 | CNC(=O)C(C(=O)NO)N(C)C(=O)c1ccc(-c2ccc(Cc3nn[nH]n3)cc2)cc1 (stereo not drawn) [Compound 60, N-hydroxy-N′-methyl-2-(methyl {[4′-(2H-tetrazol-5-ylmethyl)biphenyl-4-yl]carbonyl}amino)propanediamide] | < 7.00
21 | CNC(=O)C(C(=O)NO)N(C)C(=O)c1ccc(-c2ccccc2F)cc1 (stereo not drawn) [Compound 59, 2-{[(2′-fluorobiphenyl-4-yl)carbonyl](methyl)amino}-N-hydroxy-N′-methylpropanediamide] | > 8.00
22 | CNC(=O)C(C(=O)NO)N(C)C(=O)c1ccc(-c2ccc(NCC3CC3CNc3ccccc3)cc2)cc1 (stereo not drawn) [Compound 103, N-hydroxy-N′-methyl-2-[methyl({4′-[({2-[(phenylamino)methyl]cyclopropyl}methyl)amino]biphenyl-4-yl}carbonyl)amino]propanediamide] | > 8.00
23 | CNC(=O)C(C(=O)NO)N(C)C(=O)c1ccc(-c2ccc(OCCCN(C)Cc3c(F)cccc3F)cc2)cc1 (stereo not drawn) [Compound 92, 2-{[(4′-{3-[(2,6-difluorobenzyl)(methyl)amino]propoxy}biphenyl-4-yl)carbonyl](methyl)amino}-N-hydroxy-N′-methylpropanediamide] | > 8.00
24 | CN(C(=O)c1ccc(-c2ccccc2)cc1)C(C(=O)NO)C(=O)NC1CC1 (stereo not drawn) [Compound 175, 2-[(biphenyl-4-ylcarbonyl)(methyl)amino]-N-cyclopropyl-N′-hydroxypropanediamide] | < 7.00

Second part, the compound after the results:

Row | pIC50 | Compound
25 | > 8.00 | CNC(=O)C(C(=O)NO)N(C)C(=O)c1ccc(C#Cc2coc(CNCC(F)(F)F)c2)cc1 (stereo not drawn) [Compound 488, N-hydroxy-N′-methyl-2-[methyl({4-[(5-{[(2,2,2-trifluoroethyl)amino]methyl}furan-3-yl)ethynyl]phenyl}carbonyl)amino]propanediamide]
26 | > 8.00 | CNC(=O)C(C(=O)NO)N(C)C(=O)c1ccc(C#CC#Cc2ccc(CN3CCN(C)CC3)cc2)cc1 (stereo not drawn) [Compound 492, N-hydroxy-N′-methyl-2-(methyl {[4-(4-{4-[(4-methylpiperazin-1-yl)methyl]phenyl}buta-1,3-diyn-1-yl)phenyl]carbonyl}amino)propanediamide]
27 | > 8.00 | CNC(=O)C(C(=O)NO)N(C)C(=O)c1ccc(C#Cc2ccc(OCCN3CCCOCC3)cc2)cc1 (stereo not drawn) [Compound 381, N-hydroxy-N′-methyl-2-(methyl {[4-({4-[2-(1,4-oxazepan-4-yl)ethoxy]phenyl}ethynyl)phenyl]carbonyl}amino)propanediamide]
28 | > 8.00 | CNC(=O)C(C)(C(=O)NO)N(C)C(=O)c1ccc(-c2ccc(OC)cc2)cc1 (stereo not drawn) [Compound 348, N-hydroxy-2-{[(4′-methoxybiphenyl-4-yl)carbonyl](methyl)amino}-N′,2-dimethylpropanediamide]
29 | 7.00 to 8.00 | CCCNc1ccc(C#Cc2ccc(C(=O)N(C)C(C(=O)NC)C(=O)NO)cc2)nc1 (stereo not drawn) [Compound 407, N-hydroxy-N′-methyl-2-{methyl[(4-{[5-(propylamino)pyridin-2-yl]ethynyl}phenyl)carbonyl]amino}propanediamide]
30 | < 7.00 | CNC(=O)C(C(=O)NO)N(C)C(=O)c1ccc(C#Cc2ccn(C)n2)cc1 (stereo not drawn) [Compound 418, N-hydroxy-N′-methyl-2-[methyl({4-[(1-methyl-1H-pyrazol-3-yl)ethynyl]phenyl}carbonyl)amino]propanediamide]
31 | > 8.00 | CNC(=O)[C@@](C)(C(=O)NO)N(C)C(=O)c1ccc(C#Cc2ccc(CCN3CCCOCC3)cc2)cc1 [Compound 438, (2S)-N-hydroxy-N′,2-dimethyl-2-{methyl[4-({4-[2-(1,4-oxazepan-4-yl)ethyl]phenyl}ethynyl)benzoyl]amino}propanediamide]
32 | 7.00 to 8.00 | CNC(=O)C(C(=O)NO)N(C)C(=O)c1ccc(C#Cc2ccoc2)cc1 (stereo not drawn) [Compound 461, 2-[{[4-(furan-3-ylethynyl)phenyl]carbonyl}(methyl)amino]-N-hydroxy-N′-methylpropanediamide]
33 | > 8.00 | CNC(=O)C(C(=O)NO)N(C)C(=O)c1ccc(C#Cc2coc(CN3CCOCC3)c2)cc1 (stereo not drawn) [Compound 483, N-hydroxy-N′-methyl-2-{methyl[(4-{[5-(morpholin-4-ylmethyl)furan-3-yl]ethynyl}phenyl)carbonyl]amino}propanediamide]
